Laboratory results: patent US20260022142A1, “MACROCYCLIC IMMUNOMODULATORS” (Bristol-Myers Squibb Company, priority 2022, published 2026)
Bridge positions count the residues as written; N and C are the ends. Square brackets hold non-standard residues; d marks the D form. Peptide text beside a SMILES is read from it. * marks the point of attachment. ξ: configuration not given here. Bip = N[C@@H](Cc1ccc(-c2ccccc2)cc1)C(=O)O; Phe(3-Me) = Cc1cccc(C[C@H](N)C(=O)O)c1; Cha = N[C@@H](CC1CCCCC1)C(=O)O; Cit = NC(=O)NCCC[C@H](N)C(=O)O; Carboxymethyl = O=C(O)C*; Orn = NCCC[C@H](N)C(=O)O; Aun = NCCCCCCCCCCC(=O)O; Dab = NCC[C@H](N)C(=O)O; Dap = NC[C@H](N)C(=O)O; AEEA = NCCOCCOCC(=O)O; ξC = NC(CS)C(=O)O

Target: T1, PD-1/PD-L1 interaction (PE-labeled human PD-L1-Ig binding to Jurkat cell line over-expressing human PD-1) (Homo sapiens, UniProt Q15116)
T1 construct: expressed in transfected cells; host or cells: Jurkat
T1 sequence (Q15116 25-288): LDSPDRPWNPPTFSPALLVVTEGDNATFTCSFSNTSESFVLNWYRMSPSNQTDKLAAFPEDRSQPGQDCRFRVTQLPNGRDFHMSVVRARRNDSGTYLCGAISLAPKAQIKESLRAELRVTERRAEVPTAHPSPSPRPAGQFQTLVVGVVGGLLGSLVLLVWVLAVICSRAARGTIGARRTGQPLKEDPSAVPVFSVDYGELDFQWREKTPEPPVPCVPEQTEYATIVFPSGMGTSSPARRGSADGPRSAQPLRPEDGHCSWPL
Assay: Jurkat-PD-1 Cell Binding High-Content Screening Assay (CBA)
Type: cell-based
Conditions: Jurkat cell line over-expressing human PD-1; PE-labeled PD-L1-Ig 20 nM final; read-out: Jurkat hPD1-PDL1 IC50
Outline: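 Human PD-L1-Ig carrying a covalent PE label on its Ig tag serves as the probe, applied at 20 nM final to compound-treated (2 h, 37° C) Jurkat-hPD-1 cells in medium with 10% fetal calf serum. After one hour, fixation and nuclear staining precede high-content image analysis.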

| Structure (SMILES) | IC50 [nM] |
| --- | --- |
| Cc1cccc(C[C@@H]2NC(=O)[C@H](CC(=O)O)NC(=O)[C@H](Cc3ccc(OCC(=O)O)cc3)NC(=O)[C@H](CN)NC(=O)CSCC(C(=O)NCCOCCOCC(=O)NCCCCCCCCCCC(=O)O)NC(=O)[C@H](CN)NC(=O)[C@H](C(C)C)NC(=O)[C@H](CC3CCCCC3)NC(=O)[C@H](CCN)NC(=O)[C@@H](CC(C)C)NC(=O)[C@H](CCCN)NC(=O)[C@H](CCCNC(N)=O)NC(=O)[C@H](Cc3ccc(-c4ccccc4)cc3)NC(=O)[C@H](C(C)C)NC2=O)c1 (stereo partly drawn) [Compound 2645] ({CH2CO}-[Dap]Y(Carboxymethyl)D[Phe(3-Me)]V[Bip][Cit][Orn][dL][Dab][Cha]V[Dap][ξC][AEEA][Aun]-OH; thioether N-14) | 15.4 |
| CC[C@H](C)[C@@H]1NC(=O)[C@H](Cc2ccc(-c3ccccc3)cc2)NC(=O)[C@H](C(C)C)NC(=O)[C@H](Cc2cccc(C)c2)NC(=O)[C@H](CC(=O)O)NC(=O)[C@H](Cc2ccc(OCC(=O)O)cc2)NC(=O)[C@H](CN)NC(=O)CSCC(C(=O)NCCOCCOCC(=O)NCCCCCCCCCCC(=O)O)NC(=O)[C@H](CN)NC(=O)[C@H](C(C)C)NC(=O)[C@H](CC2CCCCC2)NC(=O)[C@H](CCN)NC(=O)[C@@H](CC(C)C)NC(=O)[C@H](CCCN)NC1=O (stereo partly drawn) [Compound 2646] ({CH2CO}-[Dap]Y(Carboxymethyl)D[Phe(3-Me)]V[Bip]I[Orn][dL][Dab][Cha]V[Dap][ξC][AEEA][Aun]-OH; thioether N-14) | 13.2 |
| Cc1cccc(C[C@@H]2NC(=O)[C@H](CC(=O)O)NC(=O)[C@H](Cc3ccc(OCC(=O)O)cc3)NC(=O)[C@H](CN)NC(=O)CSCC(C(=O)NCCOCCOCC(=O)NCCCCCCCCCCC(=O)O)NC(=O)[C@H](CCCN)NC(=O)[C@H](C(C)C)NC(=O)[C@H](CC3CCCCC3)NC(=O)[C@H](CCN)NC(=O)[C@@H](CC(C)C)NC(=O)[C@H](CCCN)NC(=O)[C@H](CCCNC(N)=O)NC(=O)[C@H](Cc3ccc(-c4ccccc4)cc3)NC(=O)[C@H](C(C)C)NC2=O)c1 (stereo partly drawn) [Compound 2647] ({CH2CO}-[Dap]Y(Carboxymethyl)D[Phe(3-Me)]V[Bip][Cit][Orn][dL][Dab][Cha]V[Orn][ξC][AEEA][Aun]-OH; thioether N-14) | 7.7 |
| CC[C@H](C)[C@@H]1NC(=O)[C@H](Cc2ccc(-c3ccccc3)cc2)NC(=O)[C@H](C(C)C)NC(=O)[C@H](Cc2cccc(C)c2)NC(=O)[C@H](CC(=O)O)NC(=O)[C@H](Cc2ccc(OCC(=O)O)cc2)NC(=O)[C@H](CN)NC(=O)CSCC(C(=O)NCCOCCOCC(=O)NCCCCCCCCCCC(=O)O)NC(=O)[C@H](CCCN)NC(=O)[C@H](C(C)C)NC(=O)[C@H](CC2CCCCC2)NC(=O)[C@H](CCN)NC(=O)[C@@H](CC(C)C)NC(=O)[C@H](CCCN)NC1=O (stereo partly drawn) [Compound 2648] ({CH2CO}-[Dap]Y(Carboxymethyl)D[Phe(3-Me)]V[Bip]I[Orn][dL][Dab][Cha]V[Orn][ξC][AEEA][Aun]-OH; thioether N-14) | 8.9 |
| Cc1cccc(C[C@@H]2NC(=O)[C@H](CC(=O)O)NC(=O)[C@H](Cc3ccc(OCC(=O)O)cc3)NC(=O)[C@H](CN)NC(=O)CSC[C@@H](C(=O)N[C@@H](CCCCN)C(=O)NCCOCCOCC(=O)NCCCCCCCCCCC(=O)O)NC(=O)[C@H](CN)NC(=O)[C@H](C(C)C)NC(=O)[C@H](CC3CCCCC3)NC(=O)[C@H](CCN)NC(=O)[C@@H](CC(C)C)NC(=O)[C@H](CCCN)NC(=O)[C@H](CCCNC(N)=O)NC(=O)[C@H](Cc3ccc(-c4ccccc4)cc3)NC(=O)[C@H](C(C)C)NC2=O)c1 [Compound 2649] ({CH2CO}-[Dap]Y(Carboxymethyl)D[Phe(3-Me)]V[Bip][Cit][Orn][dL][Dab][Cha]V[Dap]CK[AEEA][Aun]-OH; thioether N-14) | 11.1 |
